Assay results: patent US4229204A, “Trifluoromethylphenyl isoxazolyl benzoates” (Monsanto Company, priority 1978, dated 1980)

Experiments:
Type in all cases: in vivo
Soybean = experiment: Pre-emergent herbicidal test; conditions: 4 WAT
Description: (§1) The pre-emergent test was conducted as follows:
(§2) A good grade of top soil was placed in aluminum pans and compacted to a depth of three-eighths to one-half inch from the top of the pan. On the top of the soil was placed a predetermined number of seeds or vegetative propagules of various plant species which were pressed into the soil surface. The soil required to level fill the pans after seeding or adding vegetative propagules was weighed into a pan. A known amount of the active ingredient applied in a solvent or as a wettable powder and the soil were thoroughly mixed, and used as a cover layer for prepared pans.
(§3) The herbicidal rating was obtained by means of a fixed scale based on the percent injury of each plant species. The ratings are defined as follows: […]

Sorghum = experiment: Pre-emergent herbicidal test; conditions: 4 WAT
Description: as §1, §2, §3

Hemp Sesbania = experiment: Pre-emergent herbicidal test; conditions: 4 WAT
Description: as §1, §2, §3

Sugarbeet = experiment: Pre-emergent herbicidal test; conditions: 4 WAT
Description: as §1, §2, §3

Wheat = experiment: Pre-emergent herbicidal test; conditions: 4 WAT
Description: as §1, §2, §3

Rice = experiment: Pre-emergent herbicidal test; conditions: 4 WAT
Description: as §1, §2, §3

Crabgrass = experiment: Pre-emergent herbicidal test; conditions: 4 WAT
Description: as §1, §2, §3

Panicum Spp. = experiment: Pre-emergent herbicidal test; conditions: 4 WAT
Description: as §1, §2, §3

Wild Buckwheat = experiment: Pre-emergent herbicidal test; conditions: 4 WAT
Description: as §1, §2, §3

Canada Thistle [1] = experiment: Post-emergent herbicidal test; conditions: 4 WAT, 11.2 kg/h
Description: (§4) The post-emergent tests were conducted as follows:
(§5) The active ingredients are applied in spray form to two or three week old specimens of various plant species. The spray, a solution or wettable powder suspension containing the appropriate rate of active ingredient to give the desired test rate and a surfactant, is applied to the plants.
(§6) The compounds were also tested by utilizing the above procedure on the following plant species: […]

Johnsongrass [2] = experiment: Post-emergent herbicidal test; conditions: 4 WAT, 11.2 kg/h
Description: as §4, §5, §6

Smartweed [3] = experiment: Post-emergent herbicidal test; conditions: 4 WAT, 11.2 kg/h
Description: as §4, §5, §6

Quackgrass [4] = experiment: Post-emergent herbicidal test; conditions: 4 WAT, 11.2 kg/h
Description: as §4, §5, §6

Lambsquarters [5] = experiment: Post-emergent herbicidal test; conditions: 4 WAT, 11.2 kg/h
Description: as §4, §5, §6

Downy Brome [6] = experiment: Post-emergent herbicidal test; conditions: 4 WAT, 11.2 kg/h
Description: as §4, §5, §6

Morningglory [7] = experiment: Post-emergent herbicidal test; conditions: 4 WAT, 11.2 kg/h
Description: as §4, §5, §6

Yellow Nutsedge [8] = experiment: Post-emergent herbicidal test; conditions: 4 WAT, 11.2 kg/h
Description: as §4, §5, §6

Cocklebur [9] = experiment: Post-emergent herbicidal test; conditions: 4 WAT, 11.2 kg/h
Description: as §4, §5, §6

Barnyardgrass [10] = experiment: Post-emergent herbicidal test; conditions: 4 WAT, 11.2 kg/h
Description: as §4, §5, §6

Velvetleaf [11] = experiment: Post-emergent herbicidal test; conditions: 4 WAT, 11.2 kg/h
Description: as §4, §5, §6

Canada Thistle [12] = experiment: Pre-emergent herbicidal test; conditions: 4 WAT, 11.2 kg/h
Description: as §1, §2, §3, §6

Johnsongrass [13] = experiment: Pre-emergent herbicidal test; conditions: 4 WAT, 11.2 kg/h
Description: as §1, §2, §3, §6

Smartweed [14] = experiment: Pre-emergent herbicidal test; conditions: 4 WAT
Description: as §1, §2, §3, §6

Quackgrass [15] = experiment: Pre-emergent herbicidal test; conditions: 4 WAT, 11.2 kg/h
Description: as §1, §2, §3, §6

Lambsquarters [16] = experiment: Pre-emergent herbicidal test; conditions: 4 WAT
Description: as §1, §2, §3, §6

Downy Brome [17] = experiment: Pre-emergent herbicidal test; conditions: 4 WAT
Description: as §1, §2, §3, §6

Morningglory [18] = experiment: Pre-emergent herbicidal test; conditions: 4 WAT
Description: as §1, §2, §3, §6

Yellow Nutsedge [19] = experiment: Pre-emergent herbicidal test; conditions: 4 WAT, 11.2 kg/h
Description: as §1, §2, §3, §6

Cocklebur [20] = experiment: Pre-emergent herbicidal test; conditions: 4 WAT
Description: as §1, §2, §3, §6

Barnyardgrass [21] = experiment: Pre-emergent herbicidal test; conditions: 4 WAT
Description: as §1, §2, §3, §6

Velvetleaf [22] = experiment: Pre-emergent herbicidal test; conditions: 4 WAT
Description: as §1, §2, §3, §6
Note: ranges in brackets are in %.

With `O=C(O)c1ccccc1-c1cc(-c2cccc(C(F)(F)F)c2)no1` [Example 11, 2-[3-(3-Trifluoromethylphenyl)-5-Isoxazolyl]Benzoic Acid] the herbicidal rating (Soybean; 1.12 kg/h) was 3 (75-100), the herbicidal rating (Soybean; 5.60 kg/h) was 3 (75-100) and the herbicidal rating (Sorghum; 1.12 kg/h) was 1 (25-49). The herbicidal rating (Sorghum; 5.60 kg/h) was 3 (75-100), the herbicidal rating (Hemp Sesbania; 1.12 kg/h) was 3 (75-100) and the herbicidal rating (Hemp Sesbania; 5.60 kg/h) was 2 (50-74). For the same compound, the herbicidal rating (Sugarbeet; 1.12 kg/h) was 2 (50-74), the herbicidal rating (Sugarbeet; 5.60 kg/h) was 2 (50-74) and the herbicidal rating (Wheat; 1.12 kg/h) was 0 (0-24). For the same compound, the herbicidal rating (Wheat; 5.60 kg/h) was 1 (25-49), the herbicidal rating (Rice; 1.12 kg/h) was 3 (75-100) and the herbicidal rating (Rice; 5.60 kg/h) was 3 (75-100). The herbicidal rating (Crabgrass; 1.12 kg/h) was 2 (50-74), the herbicidal rating (Crabgrass; 5.60 kg/h) was 3 (75-100) and the herbicidal rating (Panicum Spp.; 1.12 kg/h) was 2 (50-74). The herbicidal rating (Panicum Spp.; 5.60 kg/h) was 3 (75-100), the herbicidal rating (Wild Buckwheat; 1.12 kg/h) was 2 (50-74) and the herbicidal rating (Wild Buckwheat; 5.60 kg/h) was 3 (75-100). For the same compound, the herbicidal rating (Canada Thistle [1]) was 1 (25-49), the herbicidal rating (Johnsongrass [2]) was 1 (25-49) and the herbicidal rating (Smartweed [3]) was 2 (50-74). For the same compound, the herbicidal rating (Quackgrass [4]) was 0 (0-24), the herbicidal rating (Lambsquarters [5]) was 2 (50-74) and the herbicidal rating (Downy Brome [6]) was 2 (50-74). For the same compound, the herbicidal rating (Morningglory [7]) was 1 (25-49), the herbicidal rating (Yellow Nutsedge [8]) was 1 (25-49) and the herbicidal rating (Cocklebur [9]) was 1 (25-49). The herbicidal rating (Barnyardgrass [10]) was 2 (50-74), the herbicidal rating (Velvetleaf [11]) was 1 (25-49) and the herbicidal rating (Canada Thistle [12]) was 3 (75-100). For the same compound, the herbicidal rating (Johnsongrass [13]) was 0 (0-24), the herbicidal rating (Smartweed [14]; 1.12 kg/h) was 2 (50-74) and the herbicidal rating (Smartweed [14]; 5.60 kg/h) was 3 (75-100). The herbicidal rating (Smartweed [14]; 11.2 kg/h) was 3 (75-100), the herbicidal rating (Quackgrass [15]) was 3 (75-100) and the herbicidal rating (Lambsquarters [16]; 1.12 kg/h) was 2 (50-74). The herbicidal rating (Lambsquarters [16]; 5.60 kg/h) was 3 (75-100), the herbicidal rating (Lambsquarters [16]; 11.2 kg/h) was 2 (50-74) and the herbicidal rating (Downy Brome [17]; 1.12 kg/h) was 2 (50-74). The herbicidal rating (Downy Brome [17]; 5.60 kg/h) was 2 (50-74), the herbicidal rating (Downy Brome [17]; 11.2 kg/h) was 3 (75-100) and the herbicidal rating (Morningglory [18]; 1.12 kg/h) was 1 (25-49). The herbicidal rating (Morningglory [18]; 5.60 kg/h) was 2 (50-74), the herbicidal rating (Morningglory [18]; 11.2 kg/h) was 2 (50-74) and the herbicidal rating (Yellow Nutsedge [19]) was 1 (25-49). The herbicidal rating (Cocklebur [20]; 1.12 kg/h) was 0 (0-24), the herbicidal rating (Cocklebur [20]; 5.60 kg/h) was 1 (25-49) and the herbicidal rating (Cocklebur [20]; 11.2 kg/h) was 3 (75-100). For the same compound, the herbicidal rating (Barnyardgrass [21]; 1.12 kg/h) was 3 (75-100), the herbicidal rating (Barnyardgrass [21]; 5.60 kg/h) was 2 (50-74) and the herbicidal rating (Barnyardgrass [21]; 11.2 kg/h) was 3 (75-100). For the same compound, the herbicidal rating (Velvetleaf [22]; 1.12 kg/h) was 1 (25-49), the herbicidal rating (Velvetleaf [22]; 5.60 kg/h) was 2 (50-74) and the herbicidal rating (Velvetleaf [22]; 11.2 kg/h) was 3 (75-100).
In the case of `CCCCCOC(=O)c1ccccc1-c1cc(-c2cccc(C(F)(F)F)c2)no1` [Example 7, n-Pentyl 2-[3-[3-(Trifluoromethyl)Phenyl]-5-Isoxazolyl]Benzoate], the herbicidal rating (Soybean; 0.28 kg/h) is reported as 0 (0-24), the herbicidal rating (Soybean; 1.12 kg/h) is reported as 0 (0-24) and the herbicidal rating (Soybean; 5.60 kg/h) is reported as 3 (75-100). The herbicidal rating (Sorghum; 0.28 kg/h) was 0 (0-24), the herbicidal rating (Sorghum; 1.12 kg/h) was 1 (25-49) and the herbicidal rating (Sorghum; 5.60 kg/h) was 3 (75-100). The herbicidal rating (Hemp Sesbania; 0.28 kg/h) was 0 (0-24), the herbicidal rating (Hemp Sesbania; 1.12 kg/h) was 1 (25-49) and the herbicidal rating (Hemp Sesbania; 5.60 kg/h) was 2 (50-74). The herbicidal rating (Sugarbeet; 0.28 kg/h) was 3 (75-100), the herbicidal rating (Sugarbeet; 1.12 kg/h) was 2 (50-74) and the herbicidal rating (Sugarbeet; 5.60 kg/h) was 2 (50-74). The herbicidal rating (Wheat; 0.28 kg/h) was 0 (0-24), the herbicidal rating (Wheat; 1.12 kg/h) was 1 (25-49) and the herbicidal rating (Wheat; 5.60 kg/h) was 1 (25-49). The herbicidal rating (Rice; 0.28 kg/h) was 1 (25-49), the herbicidal rating (Rice; 1.12 kg/h) was 2 (50-74) and the herbicidal rating (Rice; 5.60 kg/h) was 3 (75-100). The herbicidal rating (Crabgrass; 0.28 kg/h) was 0 (0-24), the herbicidal rating (Crabgrass; 1.12 kg/h) was 0 (0-24) and the herbicidal rating (Crabgrass; 5.60 kg/h) was 3 (75-100). For the same compound, the herbicidal rating (Panicum Spp.; 1.12 kg/h) was 0 (0-24), the herbicidal rating (Panicum Spp.; 5.60 kg/h) was 2 (50-74) and the herbicidal rating (Wild Buckwheat; 0.28 kg/h) was 3 (75-100). For the same compound, the herbicidal rating (Wild Buckwheat; 1.12 kg/h) was 2 (50-74), the herbicidal rating (Wild Buckwheat; 5.60 kg/h) was 2 (50-74) and the herbicidal rating (Canada Thistle [1]) was 2 (50-74). The herbicidal rating (Johnsongrass [2]) was 2 (50-74), the herbicidal rating (Smartweed [3]) was 1 (25-49) and the herbicidal rating (Quackgrass [4]) was 0 (0-24). The herbicidal rating (Lambsquarters [5]) was 1 (25-49), the herbicidal rating (Downy Brome [6]) was 0 (0-24) and the herbicidal rating (Morningglory [7]) was 2 (50-74). The herbicidal rating (Yellow Nutsedge [8]) was 1 (25-49), the herbicidal rating (Cocklebur [9]) was 2 (50-74) and the herbicidal rating (Barnyardgrass [10]) was 1 (25-49). For the same compound, the herbicidal rating (Velvetleaf [11]) was 1 (25-49), the herbicidal rating (Canada Thistle [12]) was 1 (25-49) and the herbicidal rating (Johnsongrass [13]) was 1 (25-49). The herbicidal rating (Smartweed [14]; 0.28 kg/h) was 0 (0-24), the herbicidal rating (Smartweed [14]; 1.12 kg/h) was 2 (50-74) and the herbicidal rating (Smartweed [14]; 5.60 kg/h) was 2 (50-74). For the same compound, the herbicidal rating (Smartweed [14]; 11.2 kg/h) was 2 (50-74), the herbicidal rating (Quackgrass [15]) was 2 (50-74) and the herbicidal rating (Lambsquarters [16]; 0.28 kg/h) was 1 (25-49). The herbicidal rating (Lambsquarters [16]; 1.12 kg/h) was 2 (50-74), the herbicidal rating (Lambsquarters [16]; 5.60 kg/h) was 2 (50-74) and the herbicidal rating (Lambsquarters [16]; 11.2 kg/h) was 3 (75-100). The herbicidal rating (Downy Brome [17]; 0.28 kg/h) was 2 (50-74), the herbicidal rating (Downy Brome [17]; 1.12 kg/h) was 1 (25-49) and the herbicidal rating (Downy Brome [17]; 5.60 kg/h) was 2 (50-74). For the same compound, the herbicidal rating (Downy Brome [17]; 11.2 kg/h) was 1 (25-49), the herbicidal rating (Morningglory [18]; 0.28 kg/h) was 0 (0-24) and the herbicidal rating (Morningglory [18]; 1.12 kg/h) was 2 (50-74). For the same compound, the herbicidal rating (Morningglory [18]; 5.60 kg/h) was 2 (50-74), the herbicidal rating (Morningglory [18]; 11.2 kg/h) was 1 (25-49) and the herbicidal rating (Yellow Nutsedge [19]) was 0 (0-24). For the same compound, the herbicidal rating (Cocklebur [20]; 0.28 kg/h) was 0 (0-24), the herbicidal rating (Cocklebur [20]; 1.12 kg/h) was 0 (0-24) and the herbicidal rating (Cocklebur [20]; 5.60 kg/h) was 1 (25-49). The herbicidal rating (Cocklebur [20]; 11.2 kg/h) was 1 (25-49), the herbicidal rating (Barnyardgrass [21]; 0.28 kg/h) was 2 (50-74) and the herbicidal rating (Barnyardgrass [21]; 1.12 kg/h) was 2 (50-74). For the same compound, the herbicidal rating (Barnyardgrass [21]; 5.60 kg/h) was 3 (75-100), the herbicidal rating (Barnyardgrass [21]; 11.2 kg/h) was 3 (75-100) and the herbicidal rating (Velvetleaf [22]; 0.28 kg/h) was 0 (0-24). The herbicidal rating (Velvetleaf [22]; 1.12 kg/h) was 0 (0-24), the herbicidal rating (Velvetleaf [22]; 5.60 kg/h) was 1 (25-49) and the herbicidal rating (Velvetleaf [22]; 11.2 kg/h) was 0 (0-24).
